Reference: PubChem BioAssay (NCI)
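How tested: cells in 96-well plates exposed to compound for 48 hours at five concentrations. Here, GI50 denotes the concentration required for 50% inhibition of growth. TGI: concentration producing complete growth inhibition.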

Key:
Test in all cases: NCI-60 cell line screen, 48 h; in the data active = GI50 below about 0.43 µM; inactive = the rest
UO-31 renal = system: UO-31 renal
OVCAR-8 ovarian = system: OVCAR-8 ovarian
RPMI-8226 leukemia = system: RPMI-8226 leukemia
SK-MEL-2 melanoma = system: SK-MEL-2 melanoma
IGROV1 ovarian = system: IGROV1 ovarian
U251 CNS = system: U251 CNS
BT-549 breast = system: BT-549 breast
PC-3 prostate = system: PC-3 prostate
SF-295 CNS = system: SF-295 CNS
HL-60(TB) leukemia = system: HL-60(TB) leukemia
NCI-H460 lung = system: NCI-H460 lung
SNB-75 CNS = system: SNB-75 CNS
HT29 colon = system: HT29 colon
HS 578T breast = system: HS 578T breast
SK-OV-3 ovarian = system: SK-OV-3 ovarian
SF-539 CNS = system: SF-539 CNS
MALME-3M melanoma = system: MALME-3M melanoma
OVCAR-5 ovarian = system: OVCAR-5 ovarian
OVCAR-3 ovarian = system: OVCAR-3 ovarian
EKVX NSCLC = system: EKVX NSCLC
SN12C renal = system: SN12C renal
OVCAR-4 ovarian = system: OVCAR-4 ovarian
786-0 renal = system: 786-0 renal
HCT-15 colon = system: HCT-15 colon
T-47D breast = system: T-47D breast
CCRF-CEM leukemia = system: CCRF-CEM leukemia
TK-10 renal = system: TK-10 renal
SNB-19 CNS = system: SNB-19 CNS

O=C(CN1N=C(c2ccc(F)cc2)CCC1=O)Nc1nc2ccccc2s1
11.5 µM: TGI (HT29 colon)
active: GI50 (UO-31 renal) 0.182 µM | GI50 (IGROV1 ovarian) 0.165 µM | GI50 (786-0 renal) 0.235 µM | GI50 (CCRF-CEM leukemia) 0.249 µM
4.33 µM: TGI (OVCAR-8 ovarian)
> 100 µM: TGI (SK-MEL-2 melanoma) | TGI (PC-3 prostate) | TGI (SF-295 CNS) | TGI (NCI-H460 lung) | TGI (SNB-75 CNS) | TGI (SK-OV-3 ovarian) | TGI (EKVX NSCLC) | TGI (SN12C renal) | TGI (HCT-15 colon) | TGI (T-47D breast) | TGI (TK-10 renal) | TGI (SNB-19 CNS)
3.19 µM: TGI (SF-539 CNS)
19 µM: TGI (HL-60(TB) leukemia)
1.56 µM: TGI (MALME-3M melanoma)
0.405 µM: TGI (UO-31 renal)
0.665 µM: TGI (CCRF-CEM leukemia)
0.361 µM: TGI (IGROV1 ovarian)
66 µM: TGI (HS 578T breast)
0.607 µM: TGI (786-0 renal)
4.16 µM: TGI (OVCAR-3 ovarian)
4.69 µM: TGI (U251 CNS)
inactive: GI50 (OVCAR-8 ovarian) 0.788 µM | GI50 (RPMI-8226 leukemia) 2.29 µM | GI50 (SK-MEL-2 melanoma) > 89.8 µM | GI50 (U251 CNS) 2.08 µM | GI50 (BT-549 breast) 4.81 µM | GI50 (PC-3 prostate) 9.82 µM | GI50 (SF-295 CNS) > 100 µM | GI50 (HL-60(TB) leukemia) 3.68 µM | GI50 (NCI-H460 lung) > 51.5 µM | GI50 (SNB-75 CNS) 17.9 µM | GI50 (HT29 colon) 3.32 µM | GI50 (HS 578T breast) 6.75 µM | GI50 (SK-OV-3 ovarian) > 100 µM | GI50 (SF-539 CNS) 1.7 µM | GI50 (MALME-3M melanoma) 0.621 µM | GI50 (OVCAR-5 ovarian) 3.39 µM | GI50 (OVCAR-3 ovarian) 1.99 µM | GI50 (EKVX NSCLC) 2.82 µM | GI50 (SN12C renal) 15.7 µM | GI50 (OVCAR-4 ovarian) 2.14 µM | GI50 (HCT-15 colon) 41.6 µM | GI50 (T-47D breast) > 100 µM | GI50 (TK-10 renal) > 100 µM | GI50 (SNB-19 CNS) > 96.7 µM
> 92.1 µM: TGI (OVCAR-5 ovarian)
6.17 µM: TGI (RPMI-8226 leukemia)
